Measurements as given in patent US12569452B2, “Ophthalmic compositions comprising F6H8” (NOVALIQ GMBH, priority 2017, dated 2026).

How the values were obtained:
Format in all cases: in vivo, human
[1] = test system: patients with mild to moderate dry eye disease; assay: Corneal fluorescein staining, Example 2; settings: 4 times daily, 4 weeks
Description: (§1) 48 patients (safety population) are randomized (1:1 ratio) to receive either F6H8 or Hydrabak. One drop of F6H8 (droplet volume=10-11 μl) or Hydrabak is instilled in each eye 4 times daily for 30 days. DED relevant clinical measures are recorded at Visit 1 (day 0, baseline), Visit 2 (15±2 days) and Visit 3 (30±3 days). The primary outcome variable includes Tear film thickness (TFT) as measured with high resolution optical coherence tomography (OCT), while secondary outcome variables comprised Lipid Layer Thickness (LLT) of the tear film (with LipiView Interferometer), Non-Invasive Tear Break Up Time (NITFBUT) with Bon Antares Tear Film Topographer, Dynamic Meibomian Gland Imaging (DMI) with LipiView Interferometer, Blink frequency (with LipiView interferometer), Dry Eye Visual Analogue Scale (VAS), Corneal fluorescein staining, Conjunctival lissamine green staining, Schirmer I test, Tear Film Break Up Time (TFBUT), Ocular Surface Disease Index (OSDI), Adverse Events (AEs) and others.

[2] = test system: patients with mild to moderate dry eye disease; assay: Tear film thickness (TFT) by high resolution optical coherence tomography, Example 2
Description: (§2) The study is conducted to evaluate the influence of 1-perfluorohexyl-octane (F6H8, NovaTears®) on tear film thickness in patients with mild to moderate dry eye disease. Herein the administration of 1-perfluorohexyl-octane is compared to Hydrabak (0.9% sodium chloride, Laboratoires Théa).
as §1

[3] = test system: patients with mild to moderate dry eye disease; assay: Adverse events, Example 2; settings: 4 times daily for 30 days; all adverse effects mild, low incidence
Description: as §1

[4] = test system: Dry Eye Disease (DED) patients with MGD involvement; assay: Adverse events, Phase 2 study Example 3; settings: daily dose 20-24 μl
Description: (§3) A Phase 2, Multi-Center, Randomized, Double-Masked, Saline-Controlled Study to Evaluate the Effect of 1-Perfluorohexyloctane (NOV03; F6H8) at two different dosing regimens on signs and symptoms of Dry Eye Disease (DED). The study was performed at 11 investigational cites in the United States. The study was reviewed and approved by the respective ethics committees and registered at www.clinicaltrials.gov (NCT03333057).
(§4) The study is performed to evaluate the safety, efficacy and tolerability of F6H8 at two different dosing regimens compared to saline on signs and symptoms of Dry Eye Disease.
(§5) Study subjects receive one of the following treatments over a period of 4 visits on day 1, 15, 30 and 60: • (1) F6H8 (NOV03), 4 times daily (QID); • (2) F6H8 (NOV03), 2 times daily (BID); • (3) Saline solution (0.9% sodium chloride solution), 4 times daily (QID); • (4) Saline Solution (0.9% sodium chloride solution), 2 times daily (BID).
In the BID treatment, study subjects instil bilaterally one drop in each lower eyelid conjunctival fornix two times daily. The instilled drop volume of F6H8 is about 10-12 μl, translating to a single dose of 13.5-16.2 mg (with F6H8 density=1.35 g/ml).

[5] = test system: Dry Eye Disease (DED) patients with MGD involvement; assay: Corneal fluorescein staining (NEI scale), Phase 2 study Example 3; settings: vs saline
Description: as §3, §4, §5
(§6) In the BID treatment, study subjects instil bilaterally one drop in each lower eyelid conjunctival fornix two times daily. The instilled drop volume of F6H8 is about 10-12 μl, translating to a single dose of 13.5-16.2 mg (with F6H8 density=1.35 g/ml). […]

[6] = test system: Dry Eye Disease (DED) patients with MGD involvement; assay: Ocular Surface Disease Index (OSDI), Phase 2 study Example 3; settings: BID, 2, 4 and 8 weeks
Description: as §3
The study is performed to evaluate the safety, efficacy and tolerability of F6H8 at two different dosing regimens compared to saline on signs and symptoms of Dry Eye Disease. […]
The subjects were asked to fill out an OSDI© questionnaire (see for example, Schiffman R M, et al., Arch Ophthalmol. 2000; 118:615-621) consisting of 12 questions, and asked to respond on a scale of 0 to 4, with 0 corresponding to ‘none of the time’ and 4 corresponding to “all of the time”. The questions assess dry eye symptoms experienced by the patient within past week in terms of the following ocular symptoms: sensitivity to light, gritty sensation, pain or sore eyes, blurriness, and poor vision; vision-related function, in terms of problems in: reading, driving at night, working on a computer or bank machine, watching television; and environmental factors or triggers i.e. discomfort during: windy conditions, places with low humidity, and areas with air condition. […]

[7] = test system: patients with mild to moderate dry eye disease; assay: Lipid Layer Thickness (LLT) of the tear film with LipiView Interferometer, Example 2; settings: for Lipid Layer Thickness measured in the morning before first daily dosing (relative change from baseline in %): 4 times daily dosing
Description: as §2, §1

[8] = test system: Dry Eye Disease (DED) patients with MGD involvement; assay: Eye Dryness Score on Visual Analog Scale (VAS), Phase 2 study Example 3; settings: BID, 2, 4 and 8 weeks
Description: as §3, §4, §5, §6

CCCCCCCCC(F)(F)C(F)(F)C(F)(F)C(F)(F)C(F)(F)C(F)(F)F [F6H8, 1-perfluorohexyloctane]
Corneal Staining reduction compared with Hydrabak group [1]: tended to be stronger reduced
Tear Film Thickness after continuous dosing 4-times daily (relative change from baseline in %) ([2]; 2 weeks, 10 min): 8.71%
Tear Film Thickness after continuous dosing 4-times daily (relative change from baseline in %) ([2]; 2 weeks, 20 min): 8.57%
Tear Film Thickness after continuous dosing 4-times daily (relative change from baseline in %) ([2]; 2 weeks, before instillation): 1.43%
Tear Film Thickness after continuous dosing 4-times daily (relative change from baseline in %) ([2]; 4 weeks, 10 min): 9.12%
Tear Film Thickness after continuous dosing 4-times daily (relative change from baseline in %) ([2]; 4 weeks, 20 min): 10.35%
Tear Film Thickness after continuous dosing 4-times daily (relative change from baseline in %) ([2]; 4 weeks, before instillation): 3.22%
Relative change (%) in Tear film thickness from baseline, F6H8 compared with Hydrabak (primary MMRM analysis) ([2]; 48 subjects of the safety population): significantly higher
Tear film thickness, least squares mean difference F6H8 vs Hydrabak (MMRM, post-hoc) ([2]; Visit 1, safety population 48 subjects): 1.29%
Tear film thickness, least squares mean difference F6H8 vs Hydrabak (MMRM, post-hoc) ([2]; Visit 2, safety population 48 subjects): 4.33%
Tear film thickness, least squares mean difference F6H8 vs Hydrabak (MMRM, post-hoc) ([2]; Visit 3, reached significance): 6.42%
Tear Film Thickness at study start (relative change from baseline in %) ([2]; single dose on Visit 1, 10 min after instillation): 13.39%
Tear Film Thickness at study start (relative change from baseline in %) ([2]; single dose on Visit 1, 20 min after instillation): 6.63%
Tear Film Thickness at study start (relative change from baseline in %) ([2]; single dose on Visit 1, 40 min after instillation): 4.64%
Tear Film Thickness at study start (relative change from baseline in %) ([2]; single dose on Visit 1, 60 min after instillation): 4.03%
Tear Film Thickness at study start (relative change from baseline in %) ([2]; single dose on Visit 1, 120 min after instillation): 4.76%
Tear Film Thickness at study start (relative change from baseline in %) ([2]; single dose on Visit 1, 240 min after instillation): 3.28%
Safety and tolerability in patients with DED [3]: safe and well tolerated
Adverse effects, 2-times daily schedule (BID) [4]: trend towards less adverse effects
Total corneal fluorescein staining (reduction of ocular surface damage of total corneal region) ([5]; BID dosing regimen, 8 weeks): met its prespecified primary efficacy endpoint
Reduction of ocular surface damage of central, nasal and temporal corneal region ([5]; BID, fluorescein staining NEI scale): clear improvements
Symptoms of dryness by OSDI score incl. total OSDI score over placebo [6]: highly statistical significant improvement
Lipid Layer Thickness measured in the morning before first daily dosing (relative change from baseline in %) ([7]; 2 weeks): 6.83%
Lipid Layer Thickness measured in the morning before first daily dosing (relative change from baseline in %) ([7]; 4 weeks): 4.10%
LLT relative change from baseline, estimated least square mean difference F6H8 vs Hydrabak (post hoc MMRM) ([7]; values recorded before instillation): 16.34%
VAS symptoms of dryness (severity, frequency, awareness of dryness, blurred vision, sensitivity to light) over placebo [8]: highly statistical significant improvement
